{"source": "patent US12364655B2", "about": "“Semisolid oral dispersions comprising active agents” (The Procter & Gamble Company, priority 2019, dated 2025)", "origin": "cited, not measured here", "details": "from supplier Safety Data Sheet, supplier Product Data Sheet (estimated) or Wikipedia", "note": "Like-named read-outs stand apart in the source and are kept apart here.", "data": [{"smiles": "NC(N)=O.OO", "note": "[Urea Peroxide, Urea Hydrogen Peroxide Adduct]", "values": [{"measurement": "Solubility in Water (number of parts by weight per 100 parts by weight of water)", "value": "80 parts by weight per 100 parts by weight of water"}, {"measurement": "Solubility in Water (number of parts by weight per 100 parts by weight of water)", "setting": "listed as urea peroxide", "value": "80 parts by weight per 100 parts"}]}]}
